# Source: patent US12216122B2, “Compositions and methods relating to detection, inhibition, and imaging of indoleamine 2,3-dioxygenase 1 (IDO1)” (Regeneron Pharmaceuticals, Inc., priority 2019, dated 2025)
# Read-outs that look alike come from different tables or passages of the source. Numbered stars: 1 amine (or outer) side, 2 acyl side, 3 side chain; on linkers, the order of the positions; unused ones are H or OH. Bridge positions count the residues as written; N and C are the ends. Square brackets hold non-standard residues; d marks the D form. Triazole bridges read from a SMILES are 1,4-linked. Ends that are not written are not given here. Peptide text beside a SMILES is read from it. * marks the point of attachment. Biotinyl(3aR,4R,6aS) = O=C1N[C@@H]2[C@@H](CS[C@@H]2CCCCC(=O)*)N1; NH(CH2CH2O)5CH2CO = O=C(COCCOCCOCCOCCOCCN[*:1])[*:2]; X6 = O=C([C@@H](Cc1ccc(Oc2ccccc2)cc1)N[*:1])[*:2]; Biotin = O=C1N[C@H]2[C@H](CS[C@H]2CCCCC(=O)*)N1; dTrp(1-Me) = Cn1cc(C[C@@H](N)C(=O)O)c2ccccc21; NMeLys(N3) = CN[C@@H](CCCCN=[N+]=[N-])C(=O)O; X1 = O=C(CSc1nonc1/C(=N/O)Nc1ccc(F)c(Br)c1)*; Trp(1-Me) = Cn1cc(C[C@H](N)C(=O)O)c2ccccc21; X5 = O=C1N[C@@H]2CSC(CCCCC(=O)*)[C@@H]2N1; PEG8 = NCCOCCOCCOCCOCCOCCOCCOCCOCCC(=O)O; dPhe(4-Me) = Cc1ccc(C[C@@H](N)C(=O)O)cc1; Lys(N3) = [N-]=[N+]=NCCCC[C@H](N)C(=O)O; Phe(4-F) = N[C@@H](Cc1ccc(F)cc1)C(=O)O; X4 = O=C1NC2CS[C@@H](CCCCC(=O)*)C2N1; PEG6 = NCCOCCOCCOCCOCCOCCOCCC(=O)O; dTle = CC(C)(C)[C@@H](N)C(=O)O; dNMeV = CN[C@@H](C(=O)O)C(C)C; PEG4 = NCCOCCOCCOCCOCCC(=O)O; AEEEA = NCCOCCOCCOCC(=O)O; Pra = C#CC[C@H](N)C(=O)O
# What was measured:
# [1] = target: T1, His-tagged IDO1 human recombinant protein (Homo sapiens, UniProt P14902); experiment: IDO1 ELISA (Affinity Assay): sandwich ELISA, biotinylated ligand immobilized on NEUTRAVIDIN plate; assay type: binding
# T1 construct: purchased BPS Biosciences 71182
# T1 sequence (P14902 whole entry): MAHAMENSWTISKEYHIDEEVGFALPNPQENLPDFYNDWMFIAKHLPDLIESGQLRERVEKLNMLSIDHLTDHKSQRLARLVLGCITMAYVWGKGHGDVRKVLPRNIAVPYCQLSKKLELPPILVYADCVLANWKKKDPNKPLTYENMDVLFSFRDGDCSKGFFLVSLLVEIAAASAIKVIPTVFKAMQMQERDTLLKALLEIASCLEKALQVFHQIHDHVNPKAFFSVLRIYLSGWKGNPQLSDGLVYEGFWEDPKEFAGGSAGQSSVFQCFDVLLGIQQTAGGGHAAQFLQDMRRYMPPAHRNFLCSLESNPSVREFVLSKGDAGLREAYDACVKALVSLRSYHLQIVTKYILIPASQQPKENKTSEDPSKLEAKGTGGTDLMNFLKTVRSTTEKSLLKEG
# Experimental: Protocol: A black 96-well NEUTRAVIDIN® Coated High Binding Capacity plate (15510, Pierce) was coated with 2 μM biotinylated macrocyclic peptide ligand in TBS (25 mM Tris-HCl, 150 mM NaCl, pH 7.6) for 2 h at room temperature. The plate was aspirated and then washed with Wash Buffer (0.05% (v/v) TWEEN® 20 in PBS, 6×). His-tagged IDO1 human recombinant protein (71182, BPS Biosciences) was serially diluted in Wash Buffer (from 200 to 0 nM) and incubated in the designated microwells for 1 h at room temperature. Microwells were aspirated and subsequently washed with Wash Buffer (11×). To detect the bound IDO1 protein, Alkaline Phosphatase (AP)-conjugated Anti-6×HIS TAG® antibody [HIS-1] (ab49746, Abcam) was prepared at 1:10,000 dilution and added to the microwells for 1 h at room temperature. The plate was aspirated and washed with Wash Buffer (5×). ATTOPHOS® AP Fluorescent Substrate System (S1000, Promega) was employed to develop the microwells. Using an excitation wavelength of 430 nm, fluorescent emission at 535 nm was recorded by Beckman Coulter DTX880 photometer. Titration curves were fit using a four-parameter regression curve fitting program to determine EC50 values.
# For these assays, a dilution series of His-tagged IDO1 human recombinant protein was captured using the macrocyclic peptide ligands immobilized on a NEUTRAVIDIN®-coated plate. […] The sequences of the peptide ligands are listed in Table 1, where D-amino acids are denoted in lowercase, Me-Trp=1-methyl-L-tryptophan, and F-Phe=4-fluoro-L-phenylalanine. Chemical structures are shown below Table 1.
# The D-alanine substituted, biotin-PEG3-modified macrocycles were tested in the IDO1 ELISA (Affinity assay). For these assays, a dilution series of His-tagged IDO1 human recombinant protein was captured using macrocycles immobilized on a NEUTRAVIDIN®-coated plate.
# [2] = target: T2, recombinant human IDO1 (Homo sapiens, UniProt P14902); experiment: IDO1 Fluorogenic Inhibitor Screening Assay (enzyme inhibition); assay type: biochemical
# T2 construct: purchased BPS Biosciences 72037
# T2 sequence (P14902 whole entry): as above
# Experimental: The IDO1 Fluorogenic Inhibitor Screening Assay Kit (72037, BPS Biosciences) was used to measure the enzyme inhibition of human IDO1 in the presence of macrocyclic peptide ligands. IDO1 catalyzes the conversion of the essential amino acid L-tryptophan (L-Trp) to N-formylkynurenine (NFK). In the assay, the test inhibitor and enzyme were added to a sample containing L-Trp substrate. After incubation for 1 h at room temperature, 20 μL Fluorescence Solution was added and incubated at 37° C. for 4 h to produce a fluorescent product. Activity was measured by reading sample fluorescence at λ=510 nm following excitation of the reaction product at λ=400 nm.
# [3] = 2 μM biotinylated macrocycle immobilized, human IDO1 titrated 200 to 0 nM, read-out: EC50, sandwich ELISA for human IDO1 protein against biotin-PEG3-modified macrocycle
# [4] = N-methylated heterobiligands, PEG6 linker, read-out: IC50
# [5] = Table 15, read-out: Inhibition Recombinant IDO1 IC50
compound,measurement,setting,value
"C[C@H]1NC(=O)[C@@H](CCCNC(=N)N)NC(=O)[C@@H](Cc2c[nH]c3ccccc23)NC(=O)[C@@H](NC(=O)COCCOCCOCCNC(=O)CCCC[C@H]2SC[C@H]3NC(=O)N[C@H]32)Cc2cn(nn2)CCCC[C@@H](C(N)=O)NC(=O)[C@@H](Cc2ccc(O)cc2)NC1=O [wray, Biotin-PEG3-Cy(wray)] ({Biotinyl(3aR,4R,6aS)-AEEEA}-[Pra][dW][dR][dA][dY][Lys(N3)]-NH2; triazole 1-6)","Binding to human IDO1 by ELISA, in words",[1],less potent binders
Inh-PEG6-wyvay ([dW][dY][dV][dA][dY]; also: IDO1 inhibitor via PEG6 linker),"IDO1 inhibition potency relative to the small molecule (Inh) alone, in words",[2],an order of magnitude more potent than the small molecule
"N=C(N)NCCC[C@H]1NC(=O)[C@H](Cc2ccc(F)cc2)NC(=O)[C@@H](Cc2c[nH]cn2)NC(=O)[C@@H](CO)NC(=O)[C@@H](CC(N)=O)NC(=O)[C@@H](NC(=O)COCCOCCOCCNC(=O)CCCC[C@H]2SC[C@H]3NC(=O)N[C@H]32)Cc2cn(nn2)CCCC[C@@H](C(N)=O)NC1=O [nsh(F-Phe)r, biotin-PEG3-Cy(nsh(F-Phe)r)] ({Biotinyl(3aR,4R,6aS)-AEEEA}-[Pra][dN][dS][dH][Phe(4-F)][dR][Lys(N3)]-NH2; triazole 1-7)",EC50,[1]; [3],0.068 µM
N=C(N)NCCC[C@H]1NC(=O)[C@@H](Cc2ccc(O)cc2)NC(=O)[C@@H](Cc2c[nH]c3ccccc23)NC(=O)[C@@H](NC(=O)CCOCCOCCOCCOCCOCCOCCOCCOCCNC(=O)CSc2nonc2/C(=N/O)Nc2ccc(F)c(Br)c2)Cc2cn(nn2)CCCC[C@@H](C(N)=O)NC(=O)[C@@H](Cc2ccc(O)cc2)NC1=O [Inh-PEG8-wyry] ({X1-PEG8}-[Pra][dW][dY][dR][dY][Lys(N3)]-NH2; triazole 1-6),"IDO1 inhibition potency relative to the small molecule (Inh) alone, in words",[2],significantly less potent than Inh alone
"NC(=O)[C@@H]1CCCCn2cc(nn2)C[C@H](NC(=O)COCCOCCOCCNC(=O)CCCC[C@@H]2SC[C@@H]3NC(=O)N[C@@H]32)C(=O)N[C@H](CO)C(=O)N[C@H](Cc2c[nH]c3ccccc23)C(=O)N[C@H](Cc2c[nH]c3ccccc23)C(=O)N[C@@H](Cc2ccc(F)cc2)C(=O)N1 [sww(F-Phe), Biotin-PEG3-Cy(sww(F-Phe))] ({Biotin-AEEEA}-[Pra][dS][dW][dW][Phe(4-F)][Lys(N3)]-NH2; triazole 1-6)","Binding to human IDO1 by ELISA, in words",[1],superior to the other 4-mers generated
CC(C)[C@H]1NC(=O)[C@@H](Cc2ccc(O)cc2)NC(=O)[C@@H](Cc2c[nH]c3ccccc23)NC(=O)[C@@H](NC(=O)COCCOCCOCCOCCOCCNC(=O)CSc2nonc2/C(=N/O)Nc2ccc(F)c(Br)c2)Cc2cn(nn2)CCCC[C@@H](C(N)=O)NC(=O)[C@@H](Cc2ccc(O)cc2)NC(=O)[C@@H](C)NC1=O [Inh-PEG5-wyvay] (X1-[NH(CH2CH2O)5CH2CO][Pra][dW][dY][dV][dA][dY][Lys(N3)]-NH2; triazole 2-8),"IDO1 inhibition potency relative to the small molecule (Inh) alone, in words",[2],less active than the small molecule alone
CC(C)[C@H]1NC(=O)[C@@H](Cc2ccc(O)cc2)NC(=O)[C@@H](Cc2c[nH]c3ccccc23)NC(=O)[C@@H](NC(=O)CNC(=O)CNC(=O)CSc2nonc2/C(=N/O)Nc2ccc(F)c(Br)c2)Cc2cn(nn2)CCCC[C@@H](C(N)=O)NC(=O)[C@@H](Cc2ccc(O)cc2)NC(=O)[C@@H](C)NC1=O [Deprotected-Inh-Gly2-wyvay] (X1-GG[Pra][dW][dY][dV][dA][dY][Lys(N3)]-NH2; triazole 3-9),"IDO1 inhibition potency relative to the small molecule (Inh) alone, in words",[2],less active than the small molecule alone
"Cn1cc(C[C@H]2NC(=O)[C@@H](CCCNC(=N)N)NC(=O)[C@@H](Cc3ccccc3)NC(=O)[C@@H](CO)NC(=O)[C@@H](CC(N)=O)NC(=O)[C@@H](NC(=O)COCCOCCOCCNC(=O)CCCC[C@@H]3SCC4NC(=O)NC43)Cc3cn(nn3)CCCC[C@@H](C(N)=O)NC2=O)c2ccccc21 (stereo partly shown) [nsfr(Me-Trp), biotin-PEG3-Cy(nsfr(Me-Trp))] ({X4-AEEEA}-[Pra][dN][dS][dF][dR][dTrp(1-Me)][Lys(N3)]-NH2; triazole 1-7)",EC50,[1]; [3],0.124 µM
same,EC50,"[1]; Example 9, read-out: Binding affinity (EC50) of prioritized Epitope 1 hits",0.124 µM
CC(C)[C@@H]1C(=O)N[C@H](C)C(=O)N[C@H](Cc2ccc(O)cc2)C(=O)N[C@H](C(N)=O)CCCCn2cc(nn2)C[C@H](NC(=O)CCOCCOCCOCCOCCOCCOCCNC(=O)CSc2nonc2/C(=N/O)Nc2ccc(F)c(Br)c2)C(=O)N[C@H](Cc2c[nH]c3ccccc23)C(=O)N[C@H](Cc2ccc(O)cc2)C(=O)N1C [Inh-PEG6-wy(N-Me-v)ay] ({X1-PEG6}-[Pra][dW][dY][dNMeV][dA][dY][Lys(N3)]-NH2; triazole 1-7),IC50,[2]; [4],1.46 µM
same,IC50,[2]; [5],1.46 µM
N=C(N)NCCC[C@H]1NC(=O)[C@@H](Cc2ccc(O)cc2)NC(=O)[C@@H](Cc2c[nH]c3ccccc23)NC(=O)[C@@H](NC(=O)CCOCCOCCOCCOCCNC(=O)CSc2nonc2/C(=N/O)Nc2ccc(F)c(Br)c2)Cc2cn(nn2)CCCC[C@@H](C(N)=O)NC(=O)[C@@H](Cc2ccc(O)cc2)NC1=O [Inh-PEG4-wyry] ({X1-PEG4}-[Pra][dW][dY][dR][dY][Lys(N3)]-NH2; triazole 1-6),"IDO1 inhibition potency relative to the small molecule (Inh) alone, in words",[2],equal in potency
nlf(Me-Trp)(F-Phe)-Ge-VHL: Epitope 2 peptide ligand linked to VHL E3 ligase ligand ([dN][dL][dF][Trp(1-Me)][Phe(4-F)]; also: Ge linker to VHL E3 ligase ligand),EC50,"[1]; binding analysis of VHL-linked Epitope 2 ligand, read-out: EC50",0.03 µM
"CC(C)C[C@H]1NC(=O)[C@@H](NC(=O)COCCOCCOCCNC(=O)CCCCC2SC[C@H]3NC(=O)N[C@@H]23)Cc2cn(nn2)CCCC[C@@H](C(N)=O)NC(=O)[C@H](Cc2ccc(F)cc2)NC(=O)[C@H](Cc2cn(C)c3ccccc23)NC(=O)[C@@H](Cc2ccccc2)NC1=O (stereo partly drawn) [lf(Me-Trp)(F-Phe), Biotin-PEG3-Cy(lf(Me-Trp)(F-Phe))] ({X5-AEEEA}-[Pra][dL][dF][Trp(1-Me)][Phe(4-F)][Lys(N3)]-NH2; triazole 1-6)","Binding to human IDO1 by ELISA, in words",[1],slight decrease in binding affinity
CC(C)[C@H]1NC(=O)[C@@H](Cc2ccc(O)cc2)NC(=O)[C@@H](Cc2c[nH]c3ccccc23)NC(=O)[C@@H](NC(=O)CCOCCOCCOCCOCCOCCOCCNC(=O)CSc2nonc2/C(=N/O)Nc2ccc(F)c(Br)c2)Cc2cn(nn2)CCCC[C@@H](C(N)=O)N(C)C(=O)[C@@H](Cc2ccc(O)cc2)NC(=O)[C@@H](C)NC1=O [Inh-PEG6-wyvay(N-Me)] ({X1-PEG6}-[Pra][dW][dY][dV][dA][dY][NMeLys(N3)]-NH2; triazole 1-7),IC50,[2]; [4],0.622 µM
same,IC50,[2]; [5],0.622 µM
CC(=O)N[C@H]1Cc2cn(nn2)CCCC[C@@H](C(N)=O)NC(=O)[C@@H](Cc2ccc(C)cc2)NC(=O)CNC(=O)[C@@H](C(C)(C)C)NC(=O)[C@@H](Cc2ccc(Oc3ccccc3)cc2)NC(=O)[C@@H](Cc2c[nH]c3ccccc23)NC1=O [w(Ph-Tyr)(Me-Val)G(Me-Phe)] (Ac-[Pra][dW][X6][dTle]G[dPhe(4-Me)][Lys(N3)]-NH2; triazole 1-7),EC50,[1]; read-out: Binding affinity (EC50),0.018 µM
"C[C@H]1NC(=O)[C@@H](CCCNC(=N)N)NC(=O)[C@@H](Cc2ccc(O)cc2)NC(=O)[C@@H](NC(=O)COCCOCCOCCNC(=O)CCCC[C@H]2SC[C@H]3NC(=O)N[C@H]32)Cc2cn(nn2)CCCC[C@@H](C(N)=O)NC(=O)[C@@H](Cc2ccc(O)cc2)NC1=O [yray, Biotin-PEG3-Cy(yray)] ({Biotinyl(3aR,4R,6aS)-AEEEA}-[Pra][dY][dR][dA][dY][Lys(N3)]-NH2; triazole 1-6)","Binding to human IDO1 by ELISA, in words",[1],less potent binders
PEG4,"IDO1 inhibition potency relative to the small molecule (Inh) alone, in words",[2],less active than the small molecule alone
